Consider two compounds from patent US20260092315A1, “COMPOSITIONS AND METHODS FOR DISCOVERING GENE REGULATION” (UNIVERSITY OF UTAH RESEARCH FOUNDATION, priority 2022, published 2026).

Experiment [1] has as its system MYC protein. Kind of experiment: MYC protein level by immunoblot in K562 cells treated with JQ1. Format: cell-based. Conditions: 1 uM JQ1 for 6 h. The procedure: (§1) FIGS. 4A-4C show TRoUT-FISH identifies MYC and BRD4 as regulators of glycolysis. FIG. 4A) TRoUT-FISH data from ENO1 and PGK1 screens. B,C) K562 cells were treated with 1 uM JQ1 for 6 h. FIG. 4B) MYC protein level measured by immunoblot and FIG. 4C) transcripts measured by qPCR. **p<0.01, ****p<0.0001 T-test.
(§2) First, TRoUT-FISH experiments were performed assaying the regulation of ENO1 and PGK1 in K562 cells (FIG. 4A). […] MYC is a well-characterized activator of glycolytic gene expression, and as such served as an internal positive control. BRD4 is a member of the bromodomain and extraterminal domain (BET) family of proteins and is known to regulate MYC at the transcript level.
(In western blotting, separated proteins are transferred to a membrane and probed.)

Experiment [2] relates to MYC transcript. Kind of experiment: MYC transcript by qPCR in K562 cells treated with JQ1. Format: cell-based. The note with it: 1 uM JQ1 for 6 h. The protocol: as §1, §2
Experiment [3] relates to ENO1 transcript. Kind of experiment: ENO1 transcript by qPCR in K562 cells treated with JQ1. Format: cell-based. Conditions: 1 uM JQ1 for 6 h. The protocol:
as §1, §2
(Quantitative PCR measures a nucleic acid by following its amplification.)

Experiment [4] concerns PGK1 transcript. Nature of the experiment: PGK1 transcript by qPCR in K562 cells treated with JQ1. Format: cell-based. Conditions: 1 uM JQ1 for 6 h. The procedure: as §1, §2
For experiment [5], the system named is ERRFI1. Conditions: HCT116 cells treated with JQ1, reprocessed RNA-seq data; cited from earlier work.
The subject of experiment [6] is CDKN1A RNA. Kind of experiment: MACAREL-FISH barcode recovery with CDKN1A as target RNA. Format: cell-based. The note with it: vehicle versus Nutlin-3a barcoded cells, FACS sorted. The source says: FIG. 11A-C show Method to Associate Compounds with Altered RNA levels via Fluorescent In Situ Hybridization (MACAREL-FISH). FIG. 11A) Schematic of MACAREL-FISH. FIG. 11B) Schematic of sorting strategy. Magenta boxes indicate the sorted population. Low and high populations were sorted from the Mix 50:50 population.
In brief, cells are arrayed in a 96 well plate (FIG. 11A). MACAREL-FISH is amenable to any cell type including: immortalized cancer cell lines, primary cells, patient cells, and organoids. Each well is incubated with a specific compound. Before, during, or after treatment cells are barcoded (FIG. 11A). Cells are then detached from the plate and fixed with paraformaldehyde (PFA) which locks cells in their current state. Cells are then pooled permeabilized and stained with a DNA dye and incubated overnight in hybridization buffer in the presence of specific DNA oligonucleotides that anneal to an RNA of interest. The DNA oligonucleotides are computationally designed genome-wide to ensure specificity for the elucidator. […] Based on the possible sequence space of barcodes and read length on NGS, this approach can be scaled almost ad infinitum.
Cells were treated with either vehicle control or the small molecule Nutlin-3a. […] After sorting, DNA was extracted and barcodes identity and abundance were measured by sequencing.

Experiment [7] relates to CDKN1A transcript. Nature of the experiment: CDKN1A transcript after Nutlin-3a treatment of HCT116 cells. Format: cell-based. The note with it: HCT116 cells (wildtype for TP53). The source says:
(§3) FIGS. 3A-3D show TRoUT-FISH positively identifies known mechanisms of gene regulation. Treatment with Nutlin-3a FIG. 3A) stabilizes p53 protein and FIG. 3B) induces CDKN1A transcription. FIG. 3C) FISH and flow cytometry detects drug induced changes in CDKN1A mRNA levels. FIG. 3D) MAGeCK analysis of Nutlin-3a TRoUT-FISH with CDKN1A as the elucidator. ****p<0.0001 T-test.
(§4) The small molecule Nutlin-3a, which inhibits the interaction between MDM2 and p53 and, in doing so, prevents the proteolytic degradation of p53 and permits activation of downstream targets such as CDKN1A, has been used. […] These changes were then assayed using FISH coupled with flow cytometry (FIG. 2). […] A CRISPR screen was performed in HCT116 cells stably expressing Cas9 with a small library targeting ˜1500 transcription factors, including ten sgRNAs against TP53. After acute selection, cells were treated with vehicle or Nutlin-3a and the transcript abundance of CDKN1A was determined by FISH. CDKN1Alow and CDKN1A high populations were sorted by flow cytometry (e.g. FACS), isolated genomic DNA, and sequenced sgRNAs (FIG. 2). This screen positively identified TP53 as the critical mediator of Nutlin-3a induced CDKN1A expression ([…]).

In experiment [8] the test system is p53 protein. Nature of the experiment: p53 protein level after Nutlin-3a treatment of HCT116 cells. Format: cell-based. Conditions: HCT116 cells (wildtype for TP53).
Text: as §3, §4

Experiment [9] deals with CDKN1A mRNA. Kind of experiment: FISH coupled with flow cytometry for CDKN1A mRNA in HCT116 cells. Format: cell-based. The procedure:
as §3
TRoUT-FISH is performed on bulk populations which sidesteps the cost and data sparsity issues common to single cell RNA-seq assays. As TRoUT-FISH experiments are performed without any genetic manipulations prior to CRISPR perturbations, the system is ideally positioned to integrate with other data, including ChIP-seq, ATAC-seq, and ENCODE resources. These other resources provide complementary mechanistic insight of gene regulation. Cells are infected at low MOI with virus encoding a CRISPR library selected based on antibiotic resistance. Cells are cultured for eight days to allow CRISPR editing to occur. […]
The small molecule Nutlin-3a, which inhibits the interaction between MDM2 and p53 and, in doing so, prevents the proteolytic degradation of p53 and permits activation of downstream targets such as CDKN1A, has been used. […] After acute selection, cells were treated with vehicle or Nutlin-3a and the transcript abundance of CDKN1A was determined by FISH. […]

Regarding `Cc1sc2c(c1C)C(c1ccc(Cl)cc1)=N[C@@H](CC(=O)OC(C)(C)C)c1nnc(C)n1-2` [JQ1], the MYC protein level result in experiment [1] was “significantly downregulated”. Also, the MYC transcript level result in [2] is recorded as “significantly downregulated”. For the same compound, the ENO1 transcript level entry in experiment [3] is “significantly downregulated”. The PGK1 transcript level result in experiment [4] was “significantly downregulated”. Further, the ERRFI1 levels result in experiment [5] is listed as “reduction in ERRFI1 levels”.
For `COc1ccc(C2=N[C@@H](c3ccc(Cl)cc3)[C@@H](c3ccc(Cl)cc3)N2C(=O)N2CCNC(=O)C2)c(OC(C)C)c1` [Nutlin-3a], the “Effect on CDKN1A RNA abundance (barcode recovery from sorted populations)” value in experiment [6] was “activator of CDKN1A RNA abundance”. Further, the CDKN1A transcript level entry in [7] is listed as “induction of CDKN1A transcript”. For the same compound, the p53 protein level result in experiment [8] is recorded as “stabilization of p53 protein”. Also, in experiment [9] (HCT116 cells, versus control and inactive enantiomer), the “CDKN1A FISH fluorescence by flow cytometry” value is “higher fluorescence than either the control or inactive enantiomer”. The “CDKN1A FISH signal upon treatment” value in experiment [9] (stable TP53 knockout lines) is listed as “no induction of CDKN1A signal”.
